# Source: patent publication US9708628B2, “Cationic lipid having improved intracellular kinetics” (NOF CORPORATION, priority 2011, dated 2017)
# How the values were obtained:
# [1] = system: HT1080 cells; assay: Intracellular uptake amount of MEND (NBD-DOPE labeled lipid, FACS); type: cell-based; details: NBD-DOPE label, lipid 27.5 nmol/well, 1 hr, DMEM (FBS+)
# Protocol: Using B-2 (Example 1), B-2-1 (Comparative Example 1), and DODAP (Comparative Example 2) as cationic lipids, MENDs having a composition of cationic lipid:SOPE:Chol=3:4:3 were prepared by the method described in [Experimental Example 1] (2). For the preparation, PEG2000DSG was used as PEG lipid, and MEND solutions corresponding to 0.55 mM of the lipid concentration were prepared. For cationic MEND, lipids having a composition of DOTAP (Comparative Example 3):DOPE:Chol:=3:4:3 were used, and the cationic MEND was prepared according to the method described in [Experimental Example 1] (3). The lipids of various MENDs were labeled with fluorescence according to the method described in [Experimental Example 1] (5).
# HT1080 cells were plated on a 6-well plate at 2×10^5 cells/2 mL/well 24 hr before, various sample MENDs were diluted with DMEM (FBS+) to a lipid concentration of 27.5 nmol/l mL/well and transfected into the well. After 1 hr, MEND-containing DMEM was removed, and the cells were washed twice with heparin (20 units/mL, 1 mL), and further once with PBS(−) (1 mL). 0.05% Trypsin solution (500 μL) was added, and the mixture was stood in an incubator at 37° C. for 3 min. […] The suspension was passed through a 44 μm nylon mesh immediately before the measurement, and the fluorescence intensity of intracellular NBD was measured.
# [2] = Electron microscope observation by staining method; type: physicochemical; details: phosphotungstic acid staining
# Protocol: MENDs of B-2 (Example 1) and B-2-4 (Example 4) were prepared according to [Experimental Example 1] (1), (2) and [Experimental Example 15]. For the preparation, PEG2000-DMG was used as PEG lipid, and MEND solutions corresponding to 1.38 mM of the lipid concentration were prepared. A 50% sucrose solution (pH 5.3) (5 mL) was added to a centrifugation tube, on which a 10% sucrose solution (pH 5.3) (5 mL) was layered, and a MEND solution (1.5 mL) was further overlaid to form an discontinuous density gradient. Purification was performed by ultracentrifugation (110000 g, 2 h, 25° C.) (Optima™ L-90K Ultracentrifuge, Sw41Ti, BECKMAN). The interface (4 ml) of sucrose density 10% and 50% was recovered, and sucrose was removed by ultrafiltration (1000 g, 3 min, 25° C.) to give a sample solution. A 2-fold diluted sample solution was adsorbed to a 400 mesh carbon film TEM grid, which was absorbed by a filter paper. A 2% phosphotungstic acid solution (pH 7.0) was added and the mixture was stood for 10 seconds. For observation, a transmission electron microscope (JEM-1200EX, JEOL Ltd.) was used. Accelerating voltage was set to 80 kV, and images were taken by a CCD camera (VELETA, JEOL Ltd.).
# [3] = system: HT1080 cells; assay: Intracellular uptake pathway: influence of sucrose, amiloride, filipin on uptake amount; type: cell-based; details: 0.3M sucrose, 1 mM amiloride, 3 hr
# Protocol: MENDs of B-2-4 (Example 4), B-2 (Example 1) were prepared according to [Experimental Example 1] (1), (2), [Experimental Example 18]. For the preparation, PEG2000-DMG was used as PEG lipid, and MEND solutions corresponding to 0.55 mM of the lipid concentration were prepared. pDNA was labeled with fluorescence according to the method described in [Experimental Example 15] (2).
# HT1080 cells were plated on a 6-well plate at 2×10^5 cells/2 mL/well 24 hr before. The medium was changed to DMEM (FBS+) containing filipin at a final concentration of […] 30 min before transfection. The medium was changed to DMEM (FBS+) containing a final concentration of 0.3M sucrose, and 1 mM amiloride 15 min before transfection. For transfection, various MENDs were added to the dish at 1.6 μg/2 mL/dish based on the pDNA amount. 3 hr after the transfection, the intracellular pDNA amount was measured by the method described in [Experimental Example 19] (1).
# [4] = system: HT1080 cells; assay: Influence of endosomal acidification inhibitor BafA1 (Kronos Dio); type: cell-based; details: 0.5 μM BafA1
# Protocol: MENDs of B-2-4 (Example 4), B-2 (Example 1) were prepared according to [Experimental Example 1] (1), (2), [Experimental Example […]]. For the preparation, PEG2000-DMG was used as PEG lipid, and MEND solutions corresponding to 0.55 mM of the lipid concentration were prepared.
# HT1080 cells were plated on a 3.5 cm cell culture dish at 4×10^4 cells/2 mL/dish 24 hr before. The medium was changed to DMEM (FBS 10%+) containing 0.5 μM BafA1 (Bafilomycin A1) 30 min before transfection. 30 min later, various MENDs were added to the dish at 1.6 μg/2 mL/dish based on the pDNA amount. 3 hr after the transfection, the medium was changed to DMEM (FBS 10%+, Phenol red free) containing a final concentration 200 μM of D-luciferin potassium. According to the Kronos Dio package insert, the luminescence amount was measured for 2 min every 20 min and taken as the luciferase activity (RLU/2 min).
# [5] = system: HT1080 cells; assay: Time-course evaluation of gene expression using Kronos Dio (luciferase, RLU/2 min); type: cell-based; details: pDNA 1.6 μg/2 mL/dish
# Protocol: MENDs of B-2-4 (Example 4), B-2 (Example 1) were prepared according to [Experimental Example 1] (1), (2), and [Experimental Example 18]. For the preparation, PEG2000-DMG was used as PEG lipid, and MEND solutions corresponding to 0.55 mM of the lipid concentration were prepared. For cationic MEND, lipids having a composition of DOTAP (Comparative Example 3):DOPE:Chol:=3:4:3 were used, and the cationic MEND was prepared according to the method described in [Experimental Example 1] (3).
# HT1080 cells were plated on a 3.5 cm cell culture dish at 4×10^4 cells/2 mL/dish 24 hr before, various MENDs were diluted with DMEM (FES 10%+, Phenol red free) containing a final concentration of 200 μM of D-luciferin potassium to achieve 1.6 μg/2 mL/dish based on the pDNA amount and transfection was performed. According to the Kronos Dio package insert, the luminescence amount was measured for 2 min every 20 min and taken as the luciferase activity (RLU/2 min).
Compound,intracellular uptake amount of MEND [1],structure of MEND by transmission electron microscope [2],"intracellular uptake with sucrose, amiloride, filipin [3]",activity under endosomal acidification inhibition using BafA1 [4],"gene expression activity (luciferase, RLU/2 min), time course [5]"
"CCCCCCCC/C=C\CCCCCCCC(=O)OCC(CN(C)C)OC(=O)CCCCCCC/C=C\CCCCCCCC (stereo not shown) [DODAP, reference compound]",extremely low as compared to the MENDs using B-2-1 and DOTAP,,,,
CCCCCCCCCCCCCC(=O)OCCCN(C)CCSSCCN(C)CCCOC(=O)CCCCCCCCCCCCC [Example B-2],extremely low as compared to the MENDs using B-2-1 and DOTAP,structure coated with a monolayer lipid membrane,sucrose- and amiloride-sensitive,inhibited,equivalent to that of DOTAP
CC1=C(/C=C/C(C)=C/C=C/C(C)=C/C(=O)OCCCN(C)CCSSCCN(C)CCCOC(=O)/C=C(C)/C=C/C=C(C)/C=C/C2=C(C)CCCC2(C)C)C(C)(C)CCC1 [Example B-2-4],,structure coated with a monolayer lipid membrane,sucrose- and amiloride-sensitive,inhibited,significantly higher than that of MENDs formed from B-2-1 and DOTAP
